The results in this text go back to US11186617B2, “Epitope” (HOYU CO., LTD., priority 2017, dated 2021).

The subject of experiment [1] is IgE antibody in the serum from a WDEIA patient. The experiment in a line: Epitope mapping (1): peptide array, chemiluminescent measurement of IgE binding using human serum. To be noted: 15-amino-acid peptides on array; 2% serum; sera from WDEIA patients 1 to 3 vs healthy individuals 1 and 2; FIG. 1. As to the method: Epitope mapping was performed by using a library of overlapping peptides (15 amino acids in length) corresponding to the full-length amino acid sequence of ω-5 gliadin from bread wheat (SEQ ID NO: 51).
Each synthesized peptide was shifted by 10 amino acids. In other words, each peptide overlaps with the previous peptide and the next peptide, each by 5 amino acids.
Intavis CelluSpots™ technique was used for preparing a peptide array. Specifically, the peptide array was prepared by the following procedures: (1) synthesizing a target peptide on an amino-modified cellulose disk by using an automated synthesizer (MultiPep RS from Intavis), (2) dissolving said amino-modified cellulose disk to obtain a solution of a peptide bound to cellulose, and (3) spotting said peptide bound to cellulose on a coated slide glass. The detail of each procedure is as follows.
Said peptide array was used to measure whether each peptide fragment is bound by an IgE antibody in the serum from a WDEIA patient due to an antigen-antibody reaction, or not. This measurement was performed in accordance with the following procedures. […]
(7) Chemiluminescence of the peptide that was treated as described in the above (1) to (6) was measured by using Amersham Imager 600.

For experiment [2], the system named is IgE antibody from the patient. Description: Epitope mapping (3): alanine scanning ELISA, patient serum. The class given is binding, human. To be noted: alanine-substituted peptides; serum from patient 1; FIG. 3. As for the experimental part: (§1) The amino acid sequence of SEQ ID NO: 22 and the amino acid sequence of SEQ ID NO: 29 identified in the above-mentioned (B) were subjected to a technique referred to as alanine scanning (Non Patent Literature 1). Specifically, a library of peptide fragments was prepared by a technique similar to that described above in (B), in which the peptide fragments were produced by substituting one amino acid at a time with alanine in each amino acid sequence of […], starting from the amino acid at an amino terminal side. Then, a technique similar to that described above in (B) was used to measure whether each peptide fragment was bound by the IgE antibody in the serum from a patient and a healthy subject, or not. When alanine substitution of an amino acid at a certain position led to loss or reduction of binding activity to the IgE antibody from the patient and development of binding activity to the IgE antibody from the healthy subject, the amino acid was determined to be an amino acid important for expression of inherent antigenicity or an amino acid affecting expression of inherent antigenicity. […] A common sequence important for expression of inherent antigenicity was discovered by this analysis.
(§2) The result of alanine scanning performed on the amino acid sequence of SEQ ID NO: 22 and the result of alanine scanning performed on the amino acid sequence of SEQ ID NO: 29 are shown in FIG. 3, respectively.

Experiment [3] deals with IgE antibody from the healthy subject. Description: Epitope mapping (3): alanine scanning ELISA, healthy subject serum. The class given is binding, human. To be noted: alanine-substituted peptides; sera from healthy individuals 1 and 2; FIG. 3. As to the method: as §1, §2
Experiment [4] has as its system anti-human IgE antibody as a secondary antibody. The experiment in a line: Epitope mapping (3): alanine scanning ELISA, secondary antibody used alone. The class given is binding. As to conditions: alanine-substituted peptides, FIG. 3.
From the text: FIG. 3 is a diagram showing the result of investigation of positions important for exerting antigenicity in SEQ ID NOs: 22 and 29 by an alanine scanning technique. The number on the horizontal axis denotes a value of coloration intensity at 450 nm measured by an absorption spectrometer (Abs.). In this figure, a double wavy line denotes that a value is not shown, P1 denotes that the serum from patient 1 was used, N1 and N2 denote that the sera from healthy individuals 1 and 2 were used, and 2nd denotes that an anti-human IgE antibody as a secondary antibody was used alone.
as §1, §2
For orientation: ELISA stands for enzyme-linked immunosorbent assay.

As to “SEQ ID NO: 6: peptide of amino acids 221 to 235 of the full-length ω-5 gliadin from bread wheat (SEQ ID NO: 51) (QQFPQQEFPQQQQFP; epitope)”, in experiment [1], the “binding of IgE antibody to peptide spot (chemiluminescence)” value is “bound, in a manner specific to a patient”.

“SEQ ID NO: 13: peptide of amino acids 161 to 175 of the full-length ω-5 gliadin from bread wheat (SEQ ID NO: 51) (PQQQPPQQHQFPQQQ; epitope)”: in experiment [1], the “binding of IgE antibody to peptide spot (chemiluminescence)” value was “bound, in a manner specific to a patient”.

As for “SEQ ID NO: 32: amino acid at position 5 in SEQ ID NO: 22 substituted with alanine (QQFPQQEFPAQQQFP; modified epitope)”, the “binding activity to the IgE antibody from the patient (absorbance at 450 nm)” value in experiment [2] is “reduced binding activity”. For the same substance, in experiment [3], the “binding activity to the IgE antibody from the healthy subject (absorbance at 450 nm)” value was “did not develop binding activity”. In experiment [4], the “binding activity to the anti-human IgE antibody as the secondary antibody (absorbance at 450 nm)” value was “did not develop binding activity”.

Take “SEQ ID NO: 35: amino acid at position 1 in SEQ ID NO: 22 substituted with alanine (QQFPQAEFPQQQQFP; modified epitope)”: the “binding activity to the IgE antibody from the patient (absorbance at 450 nm)” value in experiment [2] is given as “slightly reduced binding activity”. Besides, in experiment [3], the “binding activity to the IgE antibody from the healthy subject (absorbance at 450 nm)” value was “developed a relatively low level of binding activity”. Further, the “binding activity to the anti-human IgE antibody as the secondary antibody (absorbance at 450 nm)” value in experiment [4] is recorded as “developed a relatively low level of binding activity”.
